Common to all, as to type: cell-based
Experiment [1] deals with Human Pancreatic Carcinoma Cell Line (BXPC-3). Briefly: Tumor cell proliferation assay (MTT), BXPC-3. The following applies: for inhibition at 10 µM: concentration of 10^−5 mol/L, preliminary screening, 72 hours, read-out: Inhibition rate % BXPC-3; for pIC50: secondary screening, 48 hours. From the text: (§1) The assay used generally is the blue tetrazolium bromide (MTT) method. […] The amount of formazan can be detected by the microplate reader through the absorption value at 570 nm. The amount of formazan product generated is proportional to the number of living cells in the sample, so the OD value may reflect the number of living cells and the ability of a test drug to inhibit or kill cells. The MTT assay may be used in determining the ability of different compounds of the present invention to inhibit one or more cancer cells proliferation. Similar assays can be designed along the same lines for any cancer cell using techniques well known in the art.
(§2) The assay used generally is the blue tetrazolium bromide (MTT) method. […] Intracellular purple formazan salt crystals can be solved in DMSO and the absorption value at 570 nm is detected by the microplate reader, then the number of living cells can be detected indirectly. So MTT assay may be used to determine the ability of a compound of the present invention to inhibit cell proliferation. Similar assays can be designed along the same lines for any cancer cell using techniques well known in the art.
2.2.6 Human Pancreatic Carcinoma Cell Line (BXPC-3);
The cells of 2.2.6, 2.2.7 cultured in RPMI 1640 medium containing 12% fetal bovine serum in the condition of 37° C., 5% CO2.
(§3) 2.3.1 Cell seeding: Trypsinize the cell by 0.05% trypsin-EDTA and add RPMI 1640 medium (DMEM or 5A) containing 12% calf serum. Count the number, then dilute to 1.67×10^4/ml. Add 180 ul/well to the 96 well plate (3000 cells/well).
(§4) 2.3.2 Culture: cells are incubated for 24 hours at 37° C. under 5% CO2.
(§5) 2.3.3 Preliminary screening: The compounds are firstly diluted to 0.1 mol/L with DMSO, and then diluted to three concentrations of 10^−5 mol/L, 10^−6 mol/L and 10^−7 mol/L. Add 20 ul test compounds to the 96 well plate and incubate for 72 hours. Each group has three parallel wells and all experiments repeat three times. Each inhibition ratio is calculated, then an average value of three times is taken as the measured value. 2.3.4 Staining 2.3.4.1 Attached cell: add 20 ul/well MTT to the 96-well plates; incubate for 4 hours in the incubator. Pour out the culture medium in the well and add 100 ul/well DMSO. Shake the plate for 5 min. 2.3.4.2 Suspension cell: add 20 ul/well MTT to the 96-well plates; incubate for 4 hours in the incubator. Add 50 ul/well 20% SDS and incubate for overnight in the incubator. 2.3.5 Reading the plates: read the absorbance A570-A630 with the Infinite M200 microtiter plate reader. Calculate the inhibition ratio of the test compounds. […] Dilute these compounds to ten concentrations: 10^−5 mol/L, 0.5×10^−5 mol/L, 10^−6 mol/L, 0.8×10^−6 mol/L, 0.6×10^−6 mol/L, 0.4×10^−6 mol/L, 0.2×10^−6 mol/L, 10^−7 mol/L, 0.8×10^−7 mol/L and 0.4×10^−7 mol/L. Add 20 ul test compound solution to the 96 well plate and incubate for 48 hours. Each group has three parallel wells and all experiments repeat for three times. Read the plates and calculate the inhibition ratio according to the preliminary screening method. 2.3.7 Calculate the Inhibition Ratio of Cell Proliferation and the IC50
(§6) According to the inhibition ratio of cell proliferation at the different concentrations of the compound, inhibition ratio of 50% of the test compound is calculated through the logarithm of the concentration of the compound with the Logit [I] linear regression, and an average value of three times is taken as the measured value of a sample.

In experiment [2] the test system is Human Gastric Cancer Cell Line (BGC). The experiment is described as follows: Tumor cell proliferation assay (MTT), BGC. The following applies: for inhibition at 10 µM: concentration of 10^−5 mol/L, preliminary screening, 72 hours, read-out: Inhibition rate % BGC; for pIC50: secondary screening, 48 hours.
Excerpt: as §1, §2
2.2.1 Human Gastric Cancer Cell Line (BGC)
(§7) The cells of the 2.2.1, 2.2.2, 2.2.3, 2.2.4, 2.2.5 cultured with RPMI 1640 containing 12% calf serum in the condition of 37° C., 5% CO2.
as §3, §4
(§8) 2.3.3 Preliminary screening: The compounds are firstly diluted to 0.1 mol/L with DMSO, and then diluted to three concentrations of 10^−5 mol/L, 10^−6 mol/L and 10^−7 mol/L. Add 20 ul test compounds to the 96 well plate and incubate for 72 hours. Each group has three parallel wells and all experiments repeat three times. Each inhibition ratio is calculated, then an average value of three times is taken as the measured value. 2.3.4 Staining 2.3.4.1 Attached cell: add 20 ul/well MTT to the 96-well plates; incubate for 4 hours in the incubator. Pour out the culture medium in the well and add 100 ul/well DMSO. Shake the plate for 5 min. 2.3.4.2 Suspension cell: add 20 ul/well MTT to the 96-well plates; incubate for 4 hours in the incubator. Add 50 ul/well 20% SDS and incubate for overnight in the incubator. 2.3.5 Reading the plates: read the absorbance A570-A630 with the Infinite M200 microtiter plate reader. Calculate the inhibition ratio of the test compounds. 2.3.6 Secondary screening: the compounds whose inhibition ratio is greater than 50% at the concentrations of 10^−5 mol/L in the preliminary screening will be picked out for Secondary screening. Dilute these compounds to ten concentrations: 10^−5 mol/L, 0.5×10^−5 mol/L, 10^−6 mol/L, 0.8×10^−6 mol/L, 0.6×10^−6 mol/L, 0.4×10^−6 mol/L, 0.2×10^−6 mol/L, 10^−7 mol/L, 0.8×10^−7 mol/L and 0.4×10^−7 mol/L. Add 20 ul test compound solution to the 96 well plate and incubate for 48 hours. Each group has three parallel wells and all experiments repeat for three times. Read the plates and calculate the inhibition ratio according to the preliminary screening method. 2.3.7 Calculate the Inhibition Ratio of Cell Proliferation and the IC50
as §6

Experiment [3] deals with Human Colon Cancer Cell Line (HT-29). The experiment is described as follows: Tumor cell proliferation assay (MTT), HT29. The following applies: for inhibition at 10 µM: concentration of 10^−5 mol/L, preliminary screening, 72 hours, read-out: Inhibition rate % HT29; for pIC50: secondary screening, 48 hours.
Excerpt: as §1, §2
2.2.11 Human Colon Cancer Cell Line (HT-29);
(§9) The cells of 2.2.11, 2.2.12, 2.2.13 were cultured in MC COYS 5-A medium containing 12% fetal bovine serum in the condition of 37° C., 5% CO2.
as §3, §4, §5, §6

Experiment [4] deals with Human Ovarian Cancer Cell Line (SK-OV-3). Briefly: Tumor cell proliferation assay (MTT), SK-OV-3. The following applies: for inhibition at 10 µM: concentration of 10^−5 mol/L, preliminary screening, 72 hours, read-out: Inhibition rate % SK-OV-3; for pIC50: secondary screening, 48 hours.
Excerpt: as §1, §2
2.2.13 Human Ovarian Cancer Cell Line (SK-OV-3).
as §9, §3, §4, §8, §6

Experiment [5] concerns Human Small Cell Lung Cancer Cell Line (NCI-H446). The experiment is described as follows: Tumor cell proliferation assay (MTT), NCI-H446. The following applies: for inhibition at 10 µM: concentration of 10^−5 mol/L, preliminary screening, 72 hours, read-out: Inhibition rate % NCI-H446; for pIC50: secondary screening, 48 hours.
Excerpt: as §1, §2
2.2.5 Human Small Cell Lung Cancer Cell Line (NCI-H446)
as §7, §3, §4, §8, §6

Experiment [6] relates to Human Pancreatic Carcinoma Cells (PANC-1). Briefly: Tumor cell proliferation assay (MTT), PANC-1. The following applies: for inhibition at 10 µM: concentration of 10^−5 mol/L, preliminary screening, 72 hours, read-out: Inhibition rate % PANC-1; for pIC50: secondary screening, 48 hours.
Excerpt: as §1, §2
2.2.4 Human Pancreatic Carcinoma Cells (PANC-1)
as §7, §3, §4, §8, §6

In experiment [7] the test system is Human Non-Small Cell Lung Cancer Cell Line (A549). The experiment is described as follows: Tumor cell proliferation assay (MTT), A549. The following applies: for inhibition at 10 µM: concentration of 10^−5 mol/L, preliminary screening, 72 hours, read-out: Inhibition rate % A549; for pIC50: secondary screening, 48 hours.
Excerpt: as §1, §2
2.2.2 Human Non-Small Cell Lung Cancer Cell Line (A549)
as §7, §3, §4, §8, §6

pIC50: −log10 of the molar value.

Usually inhibition stands for how much of the control response was suppressed. A word on the pIC50: it is the IC50 on a negative log10 scale, so that one unit is a factor of ten. Low readings indicate a large IC50, high ones a small IC50. Turning to `CCN(CC)CC(O)CNC(=O)c1c(C)[nH]c2c1CCC/C2=C1/C(=O)Nc2ccc(F)cc21` (stereo not shown) [I-64, N-(3-(diethylamino)-2-hydroxypropyl)-2-methyl-7-[1,2-dihydro-5-fluoro-2-oxo-3H-indol-(Z)-3-ylidene]-4,5,6,7-tetrahydro-1H-indole-3-carboxamide], the inhibition at 10 µM in experiment [1] amounted to 98.5%; in experiment [2] it was 84.7%; in experiment [3], 96.6%; in experiment [4] it was 93.5%; in experiment [5] it was 98.1%. Moreover, the negative-log IC50 (pIC50) in experiment [1] is 5.89; in experiment [2], 5.66; in experiment [3], 5.89; in experiment [4] it was 5.65; in experiment [5] it was 5.69.
As for `Cc1[nH]c2c(c1C(=O)NCC(O)CN(C)C)CCC/C2=C1/C(=O)Nc2ccc(F)cc21` (stereo not shown) [I-66, N-(3-(dimethylamino)-2-hydroxypropyl)-2-methyl-7-[1,2-dihydro-5-fluoro-2-oxo-3H-indol-(Z)-3-ylidene]-4,5,6,7-tetrahydro-1H-indole-3-carboxamide], the inhibition at 10 µM in experiment [1] amounted to 97.9%; in experiment [2], 76.8%; in experiment [3], 93%; in experiment [4], 85.1%; in experiment [5] it was 88.7%. Besides, the pIC50 in experiment [1] is 5.50; in experiment [2] it was 5.33; in experiment [3] it was 5.54; in experiment [4], 5.50; in experiment [5] it was 5.52.
Regarding `Cc1[nH]c2c(c1C(=O)NCC(O)CN1CCOCC1)CCC/C2=C1/C(=O)Nc2ccccc21` (stereo not shown) [I-67, N-(2-hydroxy-3-morpholinopropyl)-2-methyl-7-[1,2-dihydro-2-oxo-3H-indol-(Z)-3-ylidene]-4,5,6,7-tetrahydro-1H-indole-3-carboxamide], the inhibition at 10 µM was 51.7% in experiment [1]; 67.6% in experiment [2]; 51.9% in experiment [3]; 31.5% in experiment [6]; 8.34% in experiment [4]; 49.3% in experiment [5]. The pIC50 in experiment [1] is 5.11; in experiment [2], 5.37; in experiment [3] it was 5.16; in experiment [5], 5.03.
`Cc1[nH]c2c(c1C(=O)NCC(O)CN1CCOCC1)CCC/C2=C1/C(=O)Nc2ccc(Cl)cc21` (stereo not shown) [I-69, N-(2-hydroxy-3-morpholinopropyl)-2-methyl-7-[1,2-dihydro-5-chloro-2-oxo-3H-indol-(Z)-3-ylidene]-4,5,6,7-tetrahydro-1H-indole-3-carboxamide]: the inhibition at 10 µM is 18.9% in experiment [7]; 39.9% in experiment [1]; 30% in experiment [2]; 34.9% in experiment [3]; 22.4% in experiment [6]; 2.8% in experiment [4]. The inhibition at 10 µM in experiment [5] was found to be 25.3%.
Turning to `Cc1[nH]c2c(c1C(=O)NCC(O)CN1CCCC1)CCC/C2=C1/C(=O)Nc2ccc(Cl)cc21` (stereo not shown) [I-72, N-(2-hydroxy-3-(pyrrolidin-1-yl)propyl)-2-methyl-7-[1,2-dihydro-5-chloro-2-oxo-3H-indol-(Z)-3-ylidene]-4,5,6,7-tetrahydro-1H-indole-3-carboxamide], the inhibition at 10 µM was 81.2% in experiment [7]; 99.3% in experiment [1]; 85.9% in experiment [2]; 97.4% in experiment [3]; 98.1% in experiment [6]; 95.1% in experiment [4]. In experiment [5], the inhibition at 10 µM was 97.9%. The negative logarithm of the IC50 (pIC50) in experiment [7] is 5.43; in experiment [1] it was 5.72; in experiment [2] it was 5.53; in experiment [3] it was 5.36; in experiment [6] it was 5.74; in experiment [4] it was 5.66. Moreover, the negative logarithm of the IC50 (pIC50) in experiment [5] was 5.53.
Consider `Cc1[nH]c2c(c1C(=O)NCC(O)CN1CCN(C)CC1)CCC/C2=C1/C(=O)Nc2ccccc21` (stereo not shown) [I-76, N-[2-hydroxy-3-(4-methylpiperazin-1-yl)propyl]-2-methyl-7-[1,2-dihydro-2-oxo-3H-indol-(Z)-3-ylidene]-4,5,6,7-tetrahydro-1H-indole-3-carboxamide], for which the inhibition at 10 µM in experiment [7] was 64.5%; in experiment [1] it was 97.5%; in experiment [2] it was 74.2%; in experiment [3] it was 92.1%; in experiment [6], 80.1%; in experiment [4], 90.3%. In addition, in experiment [5], the inhibition at 10 µM stood at 64.6%. The pIC50 is 5.87 in experiment [7]; 5.65 in experiment [1]; 5.44 in experiment [2]; 5.86 in experiment [3]; 5.47 in experiment [6]; 5.52 in experiment [4]. The same compound gave a negative-log IC50 (pIC50) in experiment [5] of 5.15.
As for `Cc1[nH]c2c(c1C(=O)NCC(O)CN1CCN(C)CC1)CCC/C2=C1/C(=O)Nc2ccc(Cl)cc21` (stereo not shown) [I-78, N-[2-hydroxy-3-(4-methylpiperazin-1-yl)propyl]-2-methyl-7-[1,2-dihydro-5-chloro-2-oxo-3H-indol-(Z)-3-ylidene]-4,5,6,7-tetrahydro-1H-indole-3-carboxamide], the inhibition at 10 µM in experiment [7] was 29.9%; in experiment [1] it was 31.7%; in experiment [2], 48.5%; in experiment [3] it was 24.2%; in experiment [6] it was 21.8%; in experiment [4], 20.2%. For the same compound, the inhibition at 10 µM in experiment [5] came to 8.07%. In experiment [2], the pIC50 is 4.92.

Values taken from patent US8084621B2, “3-Pyrrolo[b]cyclohexylene-2-dihydroindolinone derivatives and uses thereof” (Jiangsu Simcere Pharmaceutical R&D Co. Ltd., priority 2006, dated 2011).
